Patent US12486284B2, “Ubiquitin-specific protease inhibitor and preparation method therefor and use thereof” (CHASER THERAPEUTICS, INC., priority 2019, dated 2025)
Like-named read-outs stand apart in the source and are kept apart here.

Experiments:
USP25 = molecular target: T1, USP25 (Homo sapiens, UniProt Q9UHP3); experiment: USP25 activity measured using ubiquitin-rhodamine 110 method; format: biochemical; conditions: for IC50: purified USP25 15 nM, ubiquitin-rhodamine 110 125 nM, 30 min preincubation; for IC50(F)/IC50(E) USP25: ratio of IC50 of related 3-NH2 compound (F) to IC50 of 3-NHMe compound disclosed herein (E)
T1 construct: purchased R&D Systems
T1 sequence (Q9UHP3 1-1055): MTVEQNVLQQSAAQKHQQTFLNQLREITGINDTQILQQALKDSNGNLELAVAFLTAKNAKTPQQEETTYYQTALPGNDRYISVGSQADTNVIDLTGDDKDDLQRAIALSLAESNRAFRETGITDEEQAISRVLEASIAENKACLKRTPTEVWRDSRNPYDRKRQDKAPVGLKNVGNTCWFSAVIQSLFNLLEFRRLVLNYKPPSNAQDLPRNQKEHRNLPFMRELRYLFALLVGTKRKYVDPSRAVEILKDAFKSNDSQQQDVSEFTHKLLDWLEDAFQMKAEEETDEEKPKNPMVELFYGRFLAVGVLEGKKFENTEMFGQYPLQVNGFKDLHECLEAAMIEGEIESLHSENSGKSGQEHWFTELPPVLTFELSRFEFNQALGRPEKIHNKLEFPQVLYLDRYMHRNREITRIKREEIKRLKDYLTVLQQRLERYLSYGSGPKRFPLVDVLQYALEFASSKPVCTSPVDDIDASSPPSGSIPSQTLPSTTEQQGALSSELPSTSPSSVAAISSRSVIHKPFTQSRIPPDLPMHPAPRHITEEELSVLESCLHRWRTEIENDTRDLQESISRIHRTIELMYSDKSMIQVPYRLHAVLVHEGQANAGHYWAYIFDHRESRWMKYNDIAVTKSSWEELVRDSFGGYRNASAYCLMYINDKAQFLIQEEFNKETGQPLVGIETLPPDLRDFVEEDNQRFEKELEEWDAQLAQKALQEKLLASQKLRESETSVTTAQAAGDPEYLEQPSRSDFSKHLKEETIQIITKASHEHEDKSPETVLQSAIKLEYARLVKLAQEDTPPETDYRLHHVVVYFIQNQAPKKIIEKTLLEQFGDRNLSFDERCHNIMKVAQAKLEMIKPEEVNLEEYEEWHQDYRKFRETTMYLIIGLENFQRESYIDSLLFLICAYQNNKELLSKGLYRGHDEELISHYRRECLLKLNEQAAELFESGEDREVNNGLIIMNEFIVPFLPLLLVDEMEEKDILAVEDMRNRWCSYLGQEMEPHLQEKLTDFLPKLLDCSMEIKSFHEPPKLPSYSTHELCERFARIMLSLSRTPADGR
Experimental: USP25 activity was measured using ubiquitin-rhodamine 110 method.
(§1) Purified USP25 and the ubiquitin-rhodamine 110 substrate used for measuring DUBs activity were both from R&D Systems. Test compounds were first dissolved in DMSO to prepare a 10 mM stock solution, and then the stock solution was diluted with a buffer solution [containing 20 mM Tris-HCl (pH 8.0), 2 mM CaCl2), 3 mM BME, 0.01% Prionix, 0.01% Triton X-100] to the desired concentration (with DMSO content less than or equal to 0.5%). The dilution was mixed well with USP25 (final concentration 15 nM) in a 96-well plate and incubated at room temperature for 30 min, and then added with the substrate (ubiquitin-rhodamine 110) to 125 nM. The final volume of the whole reaction system was 20 μL. The released fluorescence (excitation wavelength 485 nm, emission wavelength 535 nm) was detected immediately on a microplate reader after the addition of the substrate, and the inhibitory rate of the test compound against USP25 was calculated according to the following formula: Inhibition %=1−[(test compound+fluorescence value of substrate−fluorescence value of test compound (no substrate))/mean fluorescence value of DMSO control group−fluorescence value of test compound (no substrate)]
As in Example 11, according to the inhibitory rates of the test compound against USP25 under different concentrations, IC50 was calculated.

USP28 = molecular target: T2, USP28 (Homo sapiens, UniProt Q96RU2); experiment: USP28 activity measured using ubiquitin-rhodamine 110 method; format: biochemical; conditions: for IC50: purified USP28 4 nM, ubiquitin-rhodamine 110 125 nM, 30 min preincubation; for IC50(F)/IC50(E) USP28: ratio of IC50 of related 3-NH2 compound (F) to IC50 of 3-NHMe compound disclosed herein (E)
T2 construct: purchased R&D Systems
T2 sequence (Q96RU2 1-1077): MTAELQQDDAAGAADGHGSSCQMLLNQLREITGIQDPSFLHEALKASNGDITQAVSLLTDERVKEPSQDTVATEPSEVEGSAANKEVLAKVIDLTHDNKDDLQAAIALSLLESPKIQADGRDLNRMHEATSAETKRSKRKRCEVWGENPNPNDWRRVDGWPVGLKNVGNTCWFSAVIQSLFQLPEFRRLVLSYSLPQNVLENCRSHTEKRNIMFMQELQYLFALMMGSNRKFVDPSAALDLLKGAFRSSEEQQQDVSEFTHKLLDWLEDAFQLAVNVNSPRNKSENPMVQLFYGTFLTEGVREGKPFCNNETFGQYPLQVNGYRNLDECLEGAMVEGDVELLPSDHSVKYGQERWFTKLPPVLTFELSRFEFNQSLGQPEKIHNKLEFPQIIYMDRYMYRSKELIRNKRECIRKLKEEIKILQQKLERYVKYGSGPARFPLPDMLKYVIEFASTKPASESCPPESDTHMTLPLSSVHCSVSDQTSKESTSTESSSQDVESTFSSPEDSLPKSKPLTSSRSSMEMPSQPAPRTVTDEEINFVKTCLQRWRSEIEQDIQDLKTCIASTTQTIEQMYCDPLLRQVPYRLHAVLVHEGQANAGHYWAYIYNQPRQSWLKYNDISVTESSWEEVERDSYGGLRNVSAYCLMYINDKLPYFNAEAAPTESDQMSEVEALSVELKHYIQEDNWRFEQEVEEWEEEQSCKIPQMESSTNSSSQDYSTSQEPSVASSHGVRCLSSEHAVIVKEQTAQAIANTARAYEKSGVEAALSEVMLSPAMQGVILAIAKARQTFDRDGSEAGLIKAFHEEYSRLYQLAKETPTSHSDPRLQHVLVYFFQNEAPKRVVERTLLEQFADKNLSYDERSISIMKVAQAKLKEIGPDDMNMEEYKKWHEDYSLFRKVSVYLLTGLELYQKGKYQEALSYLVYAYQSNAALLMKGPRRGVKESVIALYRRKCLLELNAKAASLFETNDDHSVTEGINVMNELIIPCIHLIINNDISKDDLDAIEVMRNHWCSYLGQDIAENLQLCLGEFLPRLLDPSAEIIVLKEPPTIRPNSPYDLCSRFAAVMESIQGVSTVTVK
Experimental: USP28 activity was measured using ubiquitin-rhodamine 110 method.
as §1, with “USP28” for “USP25”, “4” for “15”, “substrate. The” for “substrate, and the”
According to the inhibitory rates of the test compound against USP28 under different concentrations, IC50 was calculated.

[1] = read-out: Inhibitory activity against USP25 (IC50)
[2] = Inhibitory activity against USP28 (IC50)
[3] = read-out: Inhibitory activity against USP28 (IC50)
[4] = Inhibitory activity against USP25 (IC50)

| Structure (SMILES) | IC50 (USP25; [1]) | IC50 (USP28; [2]) | IC50 (USP28; [3]) | IC50 (USP25; [4]) | IC50(F)/IC50(E) USP25 (USP25) | IC50(F)/IC50(E) USP28 (USP28) |
| --- | --- | --- | --- | --- | --- | --- |
| CNc1c(C(=O)NCCc2cc(F)c(N3C[C@H]4CC[C@@H](C3)N4)c(F)c2F)sc2nc(C)ccc12 [Compound I-47] | 5 to 10 µM | < 0.1 µM | – | – | – | – |
| CNc1c(C(=O)N[C@H](C)Cc2ccc(N3C[C@H]4CC[C@@H](C3)N4)cc2)sc2nc(C)ccc12 [Compound I-64] | 0.1 to 1 µM | < 0.1 µM | – | – | – | – |
| CCNc1c(C(=O)NCCc2ccc(N3C[C@H]4CC[C@@H](C3)N4)cc2)sc2nc(C)ccc12 [Compound I-23] | 5 to 10 µM | – | 0.1 to 1 µM | – | – | – |
| CNc1c(C(=O)NCCc2cc(F)c(N3C[C@H]4CC[C@@H](C3)N4)c(F)c2)sc2nc(C)ccc12 [Compound I-43] | > 10 µM | < 0.1 µM | – | – | – | – |
| CNc1c(C(=O)NCCc2ccc(N3C[C@H]4CC[C@@H](C3)N4)cc2)sc2nc(C)ccc12 [Compound I-1, N-4-(3,8-diazabicyclo[3.2.1]octan-3-yl)phenethyl-6-methyl-3-methylaminothiophene[2,3-b]pyridine-2-carboxamide] | – | < 0.1 µM | – | < 0.1 µM | >20 | 18.75 |
| CNc1c(C(=O)NCCc2cc(F)c(N3C[C@H]4CC[C@@H](C3)N4)cc2F)sc2nc(C)cnc12 [Compound I-78] | – | < 0.1 µM | – | < 0.1 µM | – | – |
| CNc1c(C(=O)NCCc2ccc(N3C[C@H]4CC[C@@H](C3)N4)cc2)sc2nc(CC(C)C)ccc12 [Compound I-14] | > 10 µM | < 0.1 µM | – | – | – | – |
| CNc1c(C(=O)NCCc2ccc(N3C[C@H]4CC[C@@H](C3)N4)c(C)c2)sc2nc(C)ccc12 [Compound I-33] | 5 to 10 µM | < 0.1 µM | – | – | – | – |
| CCc1nc2sc(C(=O)NCCc3c[nH]c4ccccc34)c(NC)c2cc1C [Compound I-52] | 5 to 10 µM | – | < 0.1 µM | – | – | – |
| CNc1c(C(=O)NCCc2ccc(N3C[C@H]4CC[C@@H](C3)N4)cc2)sc2nc(Cl)ccc12 [Compound I-82] | 0.1 to 1 µM | – | 0.1 to 1 µM | – | – | – |
| CNc1c(C(=O)NCCc2ccc(OC)c(OC)c2)sc2nc(C)ccc12 [Compound I-58] | > 10 µM | – | 0.1 to 1 µM | – | >8 | 5.0 |
| CNc1c(C(=O)NCCc2ccc(N3C[C@H]4CC[C@@H](C3)N4)c(C(F)(F)F)c2)sc2nc(C)ccc12 [Compound I-41] | > 10 µM | – | 0.1 to 1 µM | – | – | – |
| CNc1c(C(=O)NCCc2ccc(N3C[C@H]4CC[C@@H](C3)N4)c(Cl)c2)sc2nc(C)ccc12 [Compound I-38] | > 10 µM | < 0.1 µM | – | – | – | – |
| CNc1c(C(=O)N[C@H]2Cc3ccc(N4CC5CCC(C4)N5)cc3C2)sc2nc(C)ccc12 [Compound I-84] | > 10 µM | – | 1 to 5 µM | – | – | – |
| CNc1c(C(=O)NCCc2ccc(C3CC4CC3CN4)cc2)sc2nc(C)ccc12 (centres unmarked) [Compound I-7] | 0.1 to 1 µM | – | < 0.1 µM | – | – | – |
| Cc1ccc2c(NCCN(C)C)c(C(=O)NCCc3ccc(N4C[C@H]5CC[C@@H](C4)N5)cc3)sc2n1 [Compound I-25] | > 10 µM | – | 5 to 10 µM | – | – | – |
| CCc1ccc2c(NC)c(C(=O)NCCc3c[nH]c4ccccc34)sc2n1 [Compound I-50] | 1 to 5 µM | – | < 0.1 µM | – | – | – |
| CNc1c(C(=O)NCCc2ccc(N3C[C@H]4CC[C@@H](C3)N4)cc2F)sc2nc(C)ccc12 [Compound I-39] | 0.1 to 1 µM | – | 0.1 to 1 µM | – | – | – |
| CNc1c(C(=O)NCCc2ccc(N3C[C@H]4CC[C@@H](C3)N4)c(C#N)c2)sc2nc(C)ccc12 [Compound I-37] | – | < 0.1 µM | – | < 0.1 µM | – | – |
| CNc1c(C(=O)NCCc2ccc(N3C[C@H]4CC[C@@H](C3)N4)cc2)sc2nc(C)c(C)cc12 [Compound I-30] | 1 to 5 µM | – | 0.1 to 1 µM | – | – | – |
| CNc1c(C(=O)NCCc2c(F)cc(N3C[C@H]4CC[C@@H](C3)N4)cc2F)sc2nc(C)ccc12 [Compound I-45] | > 10 µM | < 0.1 µM | – | – | – | – |
| CCc1ccc2c(NC)c(C(=O)NCCc3ccc(N4C[C@H]5CC[C@@H](C4)N5)cc3)sc2n1 [Compound I-10] | 1 to 5 µM | < 0.1 µM | – | – | – | – |
| CNc1c(C(=O)NCCc2ccc(N3C[C@H]4CC[C@@H](C3)N4)cc2)sc2nccnc12 [Compound I-70] | > 10 µM | – | 1 to 5 µM | – | – | – |
| CCc1nc2sc(C(=O)NCCc3ccc(N4C[C@H]5CC[C@@H](C4)N5)cc3)c(NC)c2cc1C [Compound I-31] | 0.1 to 1 µM | < 0.1 µM | – | – | – | – |
| CNc1c(C(=O)NCCc2ccc(N3C[C@H]4CC[C@@H](C3)N4)cc2F)sc2nc(Cl)cnc12 [Compound I-81] | > 10 µM | – | 1 to 5 µM | – | – | – |
| CNc1c(C(=O)N[C@H](C)Cc2ccc(Br)cc2)sc2nc(C)ccc12 [Compound I-62] | > 10 µM | – | 0.1 to 1 µM | – | – | – |
